# Data taken from patent publication US7223759B2, “Antibacterial 3,5-diaminopiperidine-substituted aromatic and heteroaromatic compounds” (Anadys Pharmaceuticals, Inc., priority 2003, dated 2007).
# Test system: Escherichia coli (ATCC25922) or Staphylococcus aureus (ATCC25923)
# Experiment: Antibacterial MIC, microdilution method in Mueller-Hinton medium
# Type: cell-based
# Settings: Escherichia coli, 18 h, MIC in E. coli or S. aureus; two-fold serial dilutions 64 to 0.5 μg/ml in duplicate; 18 hours of incubation at 35° C.; read-out: Potency (MIC)
# Method in brief: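 Read after 18 h incubation at 35° C, MIC is the lowest compound level that blocked growth. Compounds were tested in duplicate over 64–0.5 μg/ml two-fold dilutions using Mueller-Hinton microdilution per NCCLS standard.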
row,MIC,SMILES
1,> 64 µg/mL,"Cc1ccc(C(=O)Nc2ccc(Nc3nc(N4CCCCC4)nc(N4CCCC4)n3)cc2O)cc1.Cl [drawing 244, N-{4-[4-((3R,5S)-3,5-Diamino-piperidin-1-yl)-6-((3R,4S)-3,4-dihydrooxy-pyrrolidin-1-yl)-[1,3,5]triazin-2-ylamino]-2-hydroxy-phenyl}-4-methyl-benzamide]"
2,< 16 µg/mL,"Cl.NC1C[C@@H](N)CN(c2nc(Nc3ccc(NC(=O)c4cc(Cl)ccc4O)cc3)nc(N3C[C@H](N)C[C@H](N)C3)n2)C1 (stereo in doubt) [N-[4-(5-chloro-2-hydroxy-benzoylamino)-phenyl]-4,6-Bis-((3R,5S)-3,5-diamino-piperidin-1-yl)-[1,3,5]triazine-2-amine]"
3,> 64 µg/mL,"COCCNC(=O)c1ccc(Nc2nc(N3C[C@H](N)C[C@H](N)C3)nc(N3C[C@H](N)C[C@H](N)C3)n2)cc1O [N-[3-hydroxy-4-(2-methoxy-ethylcarbamoyl)-phenyl]-4,6-Bis-((3R,5S)-3,5-diamino-piperidin-1-yl)-[1,3,5]triazine-2-amine]"
4,< 64 µg/mL,"Cl.O=C(Nc1ccccc1Cl)c1ccc(Nc2nc(N3CCCCC3)nc(N3CCCCC3)n2)cc1O [N-[4-(2-choro-phenylcarbamoyl)-3-hydroxy-phenyl]-4,6-Bis-((3R,5S)-3,5-diamino-piperidin-1-yl)-[1,3,5]triazine-2-amine]"
5,< 64 µg/mL,"N[C@@H]1C[C@H](N)CN(c2nc(Nc3ccc(NC(=O)c4cc5cccc(O)c5cc4O)cc3)nc(N3C[C@H](N)C[C@H](N)C3)n2)C1 [N-{4-[(3,5-dihydroxy-naphthalene-2-carbonyl)-amino]-phenyl}-4,6-Bis-((3R,5S)-3,5-diamino-piperidin-1-yl)-[1,3,5]triazine-2-amine]"
6,< 64 µg/mL,"O=S(=O)(Nc1ccc2cn[nH]c2c1)c1ccc(Nc2nc(N3CCCCC3)nc(N3CCN(c4ccncc4)CC3)n2)cc1 [4-[4-((3S,5R)-3,5-DSiamino-piperidin-1-yl)-6-(4-pyridin-4-yl-piperazin-1-yl)-[1,3,5]triazin-2-ylamino]-N-(1H-indazol-6-yl)-benzenesulfonamide]"
7,> 64 µg/mL,"COc1cc(NC(=O)CC(=O)c2ccc(Nc3nc(N4C[C@H](N)C[C@H](N)C4)nc(N4C[C@H](N)C[C@H](N)C4)n3)cc2)cc(OC)c1OC [N-{4-[2-(3,4,5-trimethoxy-phenylcarbamoyl)-acetyl]-phenyl}-4,6-Bis-((3R,5S)-3,5-diamino-piperidin-1-yl)-[1,3,5]triazine-2-amine]"
8,< 64 µg/mL,"N[C@@H]1C[C@H](N)CN(c2nc(Nc3ccc(Nc4ccccc4)cc3)nc(N3C[C@H](N)C[C@H](N)C3)n2)C1 [N-(4-phenylamino-phenyl)-4,6-Bis((3R,5S)-3,5-diamino-piperidin-1-yl)-[1,3,5]triazine-2-amine]"
9,< 64 µg/mL,"COc1ccc(-c2ccccc2)cc1Nc1nc(N2C[C@H](N)C[C@H](N)C2)nc(N2C[C@H](N)C[C@H](N)C2)n1 [N-(4-methoxy-biphenyl-3-yl)-4,6-Bis-((3R,5S)-3,5-0diamino-piperidin-1-yl)-[1,3,5]triazine-2-amine]"
10,> 64 µg/mL,"N[C@@H]1C[C@H](N)CN(c2nc(Nc3ccc(C(=O)Nc4ccccc4)cc3)nc(N3C[C@H](N)C[C@H](N)C3)n2)C1 [N-(4-phenylcarbamoyl-phenyl)-4,6-Bis-((3R,5S)-3,5-diamino-piperidin-1-yl)-[1,3,5]triazine-2-amine]"

# Same assay, conditions: Escherichia coli, 18 h, read-out: Potency (MIC)
row,SMILES,MIC
1,"NC[C@H]1[C@@H](O)CCN1c1nc(Nc2ccc(NC(=O)c3ccc4ccccc4c3O)cc2)nc(N2C[C@H](N)C[C@H](N)C2)n1 [1-Hydroxy-naphthalene-2-carboxylic acid {4-[4-((2S,3S)-2-aminomethyl-3-hydroxy-pyrrolidin-1-yl)-6-((3R,5S)-3,5-diamino-piperidin-1-yl)-[1,3,5]triazin-2-ylamino]-phenyl}-amide]",< 16 µg/mL
2,"N[C@@H]1C[C@H](N)CN(c2nc(NNc3cccc(Cl)c3)nc(N3C[C@H](N)C[C@H](N)C3)n2)C1 [N-(4,6-Bis-((3R,5S)-3,5-diamino-piperidin-1-yl)-[1,3,5]triazin-2-yl)-N′-(3-Chloro-phenyl)-hydrazine]",< 64 µg/mL
3,"NC[C@@H]1C[C@@H](O)CN1c1nc(Nc2ccc(C(=O)CC(=O)Nc3ccc(F)c(F)c3)cc2)nc(N2C[C@H](N)C[C@H](N)C2)n1 [3-{4-[4-((2S,4R)-2-Aminomethyl-4-hydroxy-pyrrolidin-1-yl)-6-((3R,5S)-3,5-diamino-piperidin-1-yl)-[1,3,5]triazin-2-ylamino]-phenyl}-N-(3,4-difluoro-phenyl)-3-oxo-propionamide]",< 64 µg/mL
4,"N[C@@H]1C[C@H](N)CN(c2nc(Nc3ccc(C(=O)N4CCc5cc(Br)ccc54)c(O)c3)nc(N3C[C@H](N)C[C@H](N)C3)n2)C1 [N-[4-(5-bromo-2,3-dihydro-indole-1-carbonyl)-3-hydroxy-phenyl]-4,6-Bis-((3R,5S)-3,5-diamino-piperidin-1-yl)-[1,3,5]triazine-2-amine]",< 16 µg/mL
5,"COc1cccc(C(=O)Nc2ccc(Nc3nc(N4C[C@H](N)C[C@H](N)C4)nc(N4C[C@H](N)C[C@H](N)C4)n3)cc2Cl)c1O [N-[3-chloro-4-(2-hydroxy-3-methoxy-benzoylamino)-phenyl]-4,6-Bis-((3R,5S)-3,5-diamino-piperidin-1-yl)-[1,3,5]triazine-2-amine]",< 16 µg/mL
6,"Cc1ccc(S(=O)(=O)N(Cc2ccccc2)c2ccc(NC(=O)c3ccc(Nc4nc(N5C[C@H](N)C[C@H](N)C5)nc(N5C[C@H](N)C[C@H](N)C5)n4)cc3O)cc2O)cc1 [N-(4-{4-[benzyl-(toluene-4-sulfonyl)-amino]-3-hydroxy-phenylcarbamoyl)-3-hydroxy-phenyl)-4,6-Bis-((3R,5S)-3,5-diamino-piperidin-1-yl)-[1,3,5]triazine-2-amine]",< 16 µg/mL
7,"NC[C@@H]1C[C@H](N)CN1c1nc(Nc2ccc(C(=O)CC(=O)Nc3ccc(SC(F)(F)F)cc3)cc2)nc(N2C[C@H](N)C[C@H](N)C2)n1 [3-{4-[4-((2S,4S)-4-Amino-2-aminomethyl-pyrrolidin-1-yl)-6-((3R,5S)-3,5-diamino-piperidin-1-yl)-[1,3,5]triazin-2-ylamino]-phenyl}-3-oxo-N-(4-trifluoromethylsulfanyl-phenyl)-propionamide]",< 16 µg/mL
8,"N[C@@H]1C[C@H](N)CN(c2nc(Nc3ccc(S(=O)(=O)Nc4ccccn4)cc3)nc(N3C[C@H](N)C[C@H](N)C3)n2)C1 [N-[4-(pyridin-2-ylsulfamoyl)-phenyl]-4,6-Bis-((3R,5S)-3,5-diamino-piperidin-1-yl)-[1,3,5]triazine-2-amine]",> 64 µg/mL
9,"CCN(CC)c1ccc(Nc2nc(N3C[C@H](N)C[C@H](N)C3)nc(N3C[C@H](N)C[C@H](N)C3)n2)cc1 [N-(4-diethylamino-phenyl)-4,6-Bis-((3R,5S)-3,5-diamino-piperidin-1-yl)-[1,3,5]triazine-2-amine]",> 64 µg/mL
10,"CC(C)c1cc(C(=O)Nc2ccc(Nc3nc(N4C[C@H](N)C[C@H](N)C4)nc(N4C[C@H](N)C[C@H](N)C4)n3)cc2O)c(O)c(C(C)C)c1 [N-[3-hydroxy-4-(2-hydroxy-3,5-diisopropyl-benzoylamino)-phenyl]-4,6-Bis-((3R,5S)-3,5-diamino-piperidin-1-yl)-[1,3,5]triazine-2-amine]",< 16 µg/mL
11,"N[C@@H]1C[C@H](N)CN(c2nc(Nc3ccc(NS(=O)(=O)CCCCl)c(O)c3)nc(N3C[C@H](N)C[C@H](N)C3)n2)C1 [N-[4-(3-chloro-propane-1-sulfonylamino)-3-hydroxy-phenyl]-4,6-Bis-((3R,5S)-3,5-diamino-piperidin-1-yl)-[1,3,5]triazine-2-amine]",> 64 µg/mL
